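Cells were grown in 96-well plates and exposed to each compound for 48 hours at five concentrations; endpoints were interpolated linearly between bracketing concentrations, or set to the highest concentration if not reached. TGI is the concentration that stops growth completely.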

Assay in all cases: growth of human tumour cells (NCI), 48 h
Experiment [1] has as its system SK-OV-3 ovarian.
The test system of experiment [2] is DLD-1 colon.
Experiment [3] relates to KM12 colon.
Experiment [4] concerns DMS 273 small cell lung.
Experiment [5] relates to MDA-MB-231 breast.
For experiment [6], the system named is IGROV1 ovarian.
In experiment [7] the test system is HOP-18 NSCLC.
The subject of experiment [8] is PC-3 prostate.
Experiment [9] has as its system OVCAR-3 ovarian.
For experiment [10], the system named is KM20L2 colon.
Experiment [11] concerns SNB-75 CNS.
Experiment [12] concerns BT-549 breast.

Take `Cc1cn(C2CC(O)C(CO)O2)c(=O)[nH]c1=O` (stereo not given): the TGI in experiment [1] was more than 4890 µM; in experiment [2], more than 5000 µM; in experiment [3], more than 5000 µM; in experiment [4], more than 5000 µM; in [5], more than 5000 µM; in experiment [6] it was more than 5000 µM. Besides, the TGI in experiment [7] was more than 5000 µM; in experiment [8], more than 5000 µM; in experiment [9], more than 2650 µM; in experiment [10] it was more than 5000 µM; in experiment [11], more than 4500 µM; in [12] it was more than 5000 µM.

With `CC1=NS(=O)(=O)c2ccccc2N1`, the TGI in [1], in experiment [2], in experiment [3], in [4], in [6] and in [7] was more than 100 µM throughout. The TGI in [9], in experiment [10] and in experiment [11] was more than 100 µM throughout.

Consider `O=C(O)CCC(=O)OC1N=C(c2ccccc2Cl)c2cc([N+](=O)[O-])ccc2NC1=O` (stereo not given), for which the TGI in experiment [1], in [3], in experiment [5], in experiment [6], in experiment [8] and in [9] was more than 100 µM throughout. For the same compound, the TGI in experiment [11] and in experiment [12] was more than 100 µM throughout.

As to `COC(=O)C1CCC(=O)N1C(c1ccc(OC)cc1)c1ccc2c(c1)OCO2` (stereo not given), the TGI in experiment [1], in experiment [3], in experiment [5], in [6], in experiment [8] and in experiment [9] was more than 100 µM throughout. Moreover, the TGI was 78.9 µM in [11] and more than 100 µM in [12].

`CSc1nsc(-c2ccccc2)[s+]1`: the TGI in [1], in [2], in [3], in experiment [4], in experiment [6] and in [7] was more than 100 µM in each case. Further, the TGI in [9], in experiment [10] and in experiment [11] was more than 100 µM throughout.

With `NC1=NCC(CN2CCOCC2)O1` (stereo not given), the TGI in experiment [1], in experiment [3], in experiment [5], in experiment [6], in experiment [8] and in experiment [9] was more than 100 µM in each case. Also, the TGI in experiment [11] and in experiment [12] was more than 100 µM in each case.

For the compound `CC(=N/N=C/c1ccccn1)/C(C)=N/N=C(C)/C(C)=N/N=C(C)/C(C)=N/N=C(C)/C(C)=N\N=C\c1ccccn1`, the TGI in experiment [1], in experiment [3], in experiment [5], in experiment [6], in experiment [8] and in experiment [9] was more than 100 µM each time. The TGI in [11] and in experiment [12] was more than 100 µM throughout.

As for `NS(=O)(=O)c1cc(Cl)c(NC(=S)NC(=O)Nc2ccc(Cl)c(Cl)c2)c(Cl)c1`, the TGI in [1], in experiment [3], in [5], in experiment [6], in experiment [8] and in experiment [9] was more than 100 µM each time. For the same compound, the TGI in experiment [11] and in experiment [12] was more than 100 µM in each case.

On to `Cc1ccc(-c2[nH]c(=O)n(C3OC(CO)C(O)C(O)C3O)c(=O)c2C#N)cc1` (stereo not given), for which the TGI in experiment [1], in experiment [3], in experiment [5], in experiment [6], in experiment [8] and in experiment [9] was more than 100 µM each time. In addition, the TGI in experiment [11] and in experiment [12] was more than 100 µM each time.

For `COc1cccc2c(=O)oc(-c3ccc(C(C)(C)C)cc3)nc12`, the TGI was more than 100 µM in experiment [1]; more than 100 µM in experiment [3]; more than 100 µM in [5]; more than 100 µM in experiment [6]; more than 100 µM in experiment [8]; 81.8 µM in experiment [9]. Also, the TGI in [11] and in experiment [12] was more than 100 µM throughout.

For the compound `CC1OC(OC2C(OC(=O)[C@]34CCC(C)(C)C[C@H]3C3=CC[C@@H]5[C@@]6(C)CC[C@H](OC7OC(C(=O)O)C(O)C(O)C7O)C(C)(C)[C@@H]6CC[C@@]5(C)[C@]3(C)C[C@H]4O)OCC(O)C2O)C(O)C(OC2OCC(O)(CO)C2O)C1OC1OCC(O)C(O)C1O` (stereo not given in full), the TGI is 29.3 µM in experiment [1]; 16.3 µM in experiment [3]; 12.7 µM in [5]; 33.3 µM in experiment [6]; 21.3 µM in [8]; 27.4 µM in experiment [9]. Further, the TGI in [11] is 31.8 µM; in experiment [12], 17.3 µM.

On to `CCN(CC)CCN(C(=Nc1ccccc1)N1CCOCC1)c1ccccc1`, for which the TGI in [1], in experiment [3], in experiment [5], in [6], in experiment [8] and in experiment [9] was more than 100 µM in each case. Also, the TGI in experiment [11] and in experiment [12] was more than 100 µM throughout.

For the compound `Cc1cc(C(=O)CCCCOc2ccc(C3=NCCO3)cc2)c(C)n1C`, the TGI in experiment [1] is more than 100 µM; in experiment [3], more than 100 µM; in [5] it was more than 100 µM; in experiment [6], more than 100 µM; in [8], 59.7 µM; in [9], more than 100 µM. The TGI in experiment [11] and in experiment [12] was more than 100 µM throughout.

The record behind these values is PubChem BioAssay (NCI).
